{"source": "BindingDB's records for doi:10.1021/jm7012858", "about": "(Wyeth Research, 2008)", "assay_in_all_cases": "PI3K Inhibition Assay", "key": {"[1]": {"biological_target": "Phosphatidylinositol 3-kinase regulatory subunit alpha/4,5-bisphosphate 3-kinase catalytic subunit alpha isoform (Homo sapiens, UniProt P42336)", "sequence (P27986 whole entry, canonical isoform)": "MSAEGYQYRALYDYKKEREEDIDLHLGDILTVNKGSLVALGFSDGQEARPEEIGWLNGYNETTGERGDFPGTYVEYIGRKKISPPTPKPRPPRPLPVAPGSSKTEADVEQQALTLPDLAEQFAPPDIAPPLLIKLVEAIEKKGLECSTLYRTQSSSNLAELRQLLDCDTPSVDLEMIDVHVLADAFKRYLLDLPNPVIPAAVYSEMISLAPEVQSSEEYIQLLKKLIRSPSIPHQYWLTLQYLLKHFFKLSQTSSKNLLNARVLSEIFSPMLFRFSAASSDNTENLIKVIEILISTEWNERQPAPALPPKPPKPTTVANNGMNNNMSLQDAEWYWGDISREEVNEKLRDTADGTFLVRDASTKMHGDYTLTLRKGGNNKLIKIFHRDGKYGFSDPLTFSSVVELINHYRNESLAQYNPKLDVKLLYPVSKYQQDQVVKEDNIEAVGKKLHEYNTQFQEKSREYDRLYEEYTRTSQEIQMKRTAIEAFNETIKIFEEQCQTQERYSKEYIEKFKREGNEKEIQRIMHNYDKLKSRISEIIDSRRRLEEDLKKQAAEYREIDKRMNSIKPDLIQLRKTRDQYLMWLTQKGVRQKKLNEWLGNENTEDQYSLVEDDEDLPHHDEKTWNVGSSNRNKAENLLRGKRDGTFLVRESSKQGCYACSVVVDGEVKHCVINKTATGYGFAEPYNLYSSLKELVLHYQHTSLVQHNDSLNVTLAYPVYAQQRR", "sequence (P42336 whole entry, canonical isoform)": "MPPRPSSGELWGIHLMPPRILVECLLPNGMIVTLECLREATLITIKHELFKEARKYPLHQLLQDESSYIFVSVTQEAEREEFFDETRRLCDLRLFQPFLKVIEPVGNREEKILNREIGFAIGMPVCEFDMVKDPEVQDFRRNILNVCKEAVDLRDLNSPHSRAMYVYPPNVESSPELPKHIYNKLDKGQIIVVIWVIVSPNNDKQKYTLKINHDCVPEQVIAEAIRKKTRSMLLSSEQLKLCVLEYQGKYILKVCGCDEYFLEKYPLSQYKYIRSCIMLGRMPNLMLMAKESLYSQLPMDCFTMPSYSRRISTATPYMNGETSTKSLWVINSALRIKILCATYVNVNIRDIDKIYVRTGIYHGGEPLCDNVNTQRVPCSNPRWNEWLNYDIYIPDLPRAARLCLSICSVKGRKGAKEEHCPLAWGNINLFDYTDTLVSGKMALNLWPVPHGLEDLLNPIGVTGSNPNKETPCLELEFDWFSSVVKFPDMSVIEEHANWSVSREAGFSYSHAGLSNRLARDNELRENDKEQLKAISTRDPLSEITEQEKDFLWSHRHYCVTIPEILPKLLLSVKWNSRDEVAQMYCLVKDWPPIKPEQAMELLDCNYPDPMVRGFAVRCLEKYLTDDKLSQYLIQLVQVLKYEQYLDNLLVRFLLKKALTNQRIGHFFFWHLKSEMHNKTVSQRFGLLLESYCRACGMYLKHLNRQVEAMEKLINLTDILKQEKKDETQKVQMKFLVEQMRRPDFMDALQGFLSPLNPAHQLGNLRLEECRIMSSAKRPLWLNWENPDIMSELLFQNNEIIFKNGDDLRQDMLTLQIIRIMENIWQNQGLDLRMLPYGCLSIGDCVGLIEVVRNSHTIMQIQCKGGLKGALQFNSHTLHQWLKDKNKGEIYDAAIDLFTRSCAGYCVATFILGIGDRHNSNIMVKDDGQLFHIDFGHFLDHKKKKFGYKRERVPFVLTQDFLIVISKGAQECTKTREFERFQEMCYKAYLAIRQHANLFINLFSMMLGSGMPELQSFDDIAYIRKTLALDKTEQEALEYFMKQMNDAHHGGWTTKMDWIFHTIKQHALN", "protocol": "(§1) Inhibition of PI3K enzyme activity is measured in a microtiter plate-based fluorescence polarization (FP) assay."}, "[2]": {"biological_target": "Phosphatidylinositol 3-kinase regulatory subunit beta/4,5-bisphosphate 3-kinase catalytic subunit beta isoform (Homo sapiens, UniProt P42338)", "sequence (P42338 whole entry, canonical isoform)": "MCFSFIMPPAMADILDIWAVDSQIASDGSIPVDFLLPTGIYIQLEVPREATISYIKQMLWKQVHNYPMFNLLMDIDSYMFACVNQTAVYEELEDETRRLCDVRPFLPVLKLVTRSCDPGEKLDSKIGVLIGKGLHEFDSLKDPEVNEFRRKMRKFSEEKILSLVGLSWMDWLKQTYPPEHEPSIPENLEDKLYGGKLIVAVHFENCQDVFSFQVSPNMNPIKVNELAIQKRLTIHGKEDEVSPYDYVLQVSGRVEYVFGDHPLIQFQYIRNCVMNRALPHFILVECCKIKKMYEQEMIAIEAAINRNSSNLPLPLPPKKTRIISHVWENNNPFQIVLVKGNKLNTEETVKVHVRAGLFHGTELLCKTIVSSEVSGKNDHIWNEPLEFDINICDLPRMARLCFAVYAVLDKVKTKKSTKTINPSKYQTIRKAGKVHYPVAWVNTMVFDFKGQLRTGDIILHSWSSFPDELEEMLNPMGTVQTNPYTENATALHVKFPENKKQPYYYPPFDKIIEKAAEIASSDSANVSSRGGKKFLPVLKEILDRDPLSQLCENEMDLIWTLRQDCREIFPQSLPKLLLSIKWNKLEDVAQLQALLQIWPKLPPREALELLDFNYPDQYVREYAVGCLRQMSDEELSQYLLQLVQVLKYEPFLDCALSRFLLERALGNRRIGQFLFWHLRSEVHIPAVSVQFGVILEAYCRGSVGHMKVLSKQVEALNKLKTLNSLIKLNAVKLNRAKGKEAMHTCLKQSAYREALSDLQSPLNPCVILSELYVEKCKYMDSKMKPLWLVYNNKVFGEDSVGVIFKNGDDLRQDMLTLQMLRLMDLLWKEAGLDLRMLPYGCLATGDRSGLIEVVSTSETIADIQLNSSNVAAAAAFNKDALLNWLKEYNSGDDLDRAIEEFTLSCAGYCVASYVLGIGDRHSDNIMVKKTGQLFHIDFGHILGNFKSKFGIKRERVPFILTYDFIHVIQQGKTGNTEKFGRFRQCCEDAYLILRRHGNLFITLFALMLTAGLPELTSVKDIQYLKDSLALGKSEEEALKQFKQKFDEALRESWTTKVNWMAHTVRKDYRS", "sequence (O00459 whole entry, further chain, canonical isoform)": "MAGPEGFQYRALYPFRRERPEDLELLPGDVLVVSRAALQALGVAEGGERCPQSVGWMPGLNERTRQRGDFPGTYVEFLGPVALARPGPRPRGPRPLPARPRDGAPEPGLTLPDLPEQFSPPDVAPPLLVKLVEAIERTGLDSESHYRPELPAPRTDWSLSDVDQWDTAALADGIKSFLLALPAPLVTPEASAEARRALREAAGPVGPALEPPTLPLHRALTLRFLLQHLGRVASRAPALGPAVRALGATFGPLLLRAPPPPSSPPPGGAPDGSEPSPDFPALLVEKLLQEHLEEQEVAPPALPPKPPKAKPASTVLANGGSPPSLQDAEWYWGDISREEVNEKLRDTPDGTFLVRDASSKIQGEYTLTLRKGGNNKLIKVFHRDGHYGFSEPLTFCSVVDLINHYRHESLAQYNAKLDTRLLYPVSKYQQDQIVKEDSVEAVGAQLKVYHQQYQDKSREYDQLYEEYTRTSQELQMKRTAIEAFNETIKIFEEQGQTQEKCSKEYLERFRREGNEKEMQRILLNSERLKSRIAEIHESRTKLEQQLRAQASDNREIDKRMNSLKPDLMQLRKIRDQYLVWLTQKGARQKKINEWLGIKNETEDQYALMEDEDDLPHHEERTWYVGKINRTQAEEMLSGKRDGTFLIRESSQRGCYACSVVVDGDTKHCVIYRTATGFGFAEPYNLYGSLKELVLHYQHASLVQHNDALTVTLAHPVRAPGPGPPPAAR", "conditions": "pH 7.5; 22 °C", "protocol": "as §1"}, "[3]": {"biological_target": "Phosphatidylinositol 3-kinase regulatory subunit beta/4,5-bisphosphate 3-kinase catalytic subunit delta isoform (Homo sapiens, UniProt O00329+O00459)", "sequence (O00459 whole entry, canonical isoform)": "as the sequence (O00459 whole entry, further chain, canonical isoform) above", "sequence (O00329 whole entry, canonical isoform)": "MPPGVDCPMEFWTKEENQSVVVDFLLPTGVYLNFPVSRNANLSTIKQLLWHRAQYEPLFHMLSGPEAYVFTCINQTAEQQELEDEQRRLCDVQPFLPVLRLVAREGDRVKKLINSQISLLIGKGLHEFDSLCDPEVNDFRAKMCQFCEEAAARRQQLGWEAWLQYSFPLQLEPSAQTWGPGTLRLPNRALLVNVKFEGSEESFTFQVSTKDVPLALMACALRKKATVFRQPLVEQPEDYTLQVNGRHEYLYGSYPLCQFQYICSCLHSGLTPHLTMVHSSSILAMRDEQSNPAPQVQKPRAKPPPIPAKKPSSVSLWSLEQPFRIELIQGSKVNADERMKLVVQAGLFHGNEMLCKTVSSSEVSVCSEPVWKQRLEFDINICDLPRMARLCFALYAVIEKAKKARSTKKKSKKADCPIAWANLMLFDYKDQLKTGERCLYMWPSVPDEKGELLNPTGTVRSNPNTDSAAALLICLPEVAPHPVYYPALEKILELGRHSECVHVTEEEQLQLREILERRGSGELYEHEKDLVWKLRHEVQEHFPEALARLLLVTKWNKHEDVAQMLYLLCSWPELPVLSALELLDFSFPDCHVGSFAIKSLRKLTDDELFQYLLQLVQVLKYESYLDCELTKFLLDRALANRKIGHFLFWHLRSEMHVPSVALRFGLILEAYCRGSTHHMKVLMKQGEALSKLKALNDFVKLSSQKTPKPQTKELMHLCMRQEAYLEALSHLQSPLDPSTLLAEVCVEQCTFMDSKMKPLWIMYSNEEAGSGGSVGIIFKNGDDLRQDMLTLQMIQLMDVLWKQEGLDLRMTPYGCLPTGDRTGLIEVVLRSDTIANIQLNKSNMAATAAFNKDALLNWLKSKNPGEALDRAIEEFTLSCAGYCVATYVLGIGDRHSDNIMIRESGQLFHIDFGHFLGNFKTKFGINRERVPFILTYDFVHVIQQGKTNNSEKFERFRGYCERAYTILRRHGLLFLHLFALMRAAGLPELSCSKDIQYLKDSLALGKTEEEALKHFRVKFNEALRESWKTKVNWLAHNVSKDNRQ", "conditions": "pH 7.5; 22 °C", "protocol": "as §1"}, "[4]": {"biological_target": "Phosphatidylinositol 4,5-bisphosphate 3-kinase catalytic subunit gamma isoform/Phosphoinositide 3-kinase regulatory subunit 5 (Homo sapiens, UniProt P48736)", "conditions": "pH 7.5; 22 °C", "protocol": "as §1"}}}
{"smiles": "COC[C@H]1OC(=O)C(=CN(C)CCCN(C)C)C2C(=O)C(=O)C3=C([C@H](OC(C)=O)C[C@@]4(C)C3CC[C@@H]4O)[C@]21C", "note": "(stereo partly drawn) [(2R,3S,6Z,14S,15S,17R)-6-({[3-(dimethylamino)propyl](methyl)amino}methylidene)-8,14-dihydroxy-3-(methoxymethyl)-2,15-dimethyl-5,9-dioxo-4-oxatetracyclo[8.7.0.0^{2,7}.0^{11,15}]heptadeca-1(10),7-dien-17-yl acetate]", "values": [{"measurement": "IC50", "setting": "[1]; pH 7.5, 22 °C", "value": 0.0064, "unit": "µM"}, {"measurement": "IC50", "setting": "[2]", "value": 0.013, "unit": "µM"}, {"measurement": "IC50", "setting": "[3]", "value": 0.011, "unit": "µM"}, {"measurement": "IC50", "setting": "[4]", "value": 0.008, "unit": "µM"}]}
{"smiles": "COC[C@H]1OC(=O)C(=CN2CCN(C3CCN(C)CC3)CC2)C2C(=O)C(=O)C3=C([C@H](OC(C)=O)C[C@@]4(C)C3CC[C@@H]4O)[C@]21C", "note": "(stereo partly drawn) [(2R,3S,6E,14S,15S,17R)-8,14-dihydroxy-3-(methoxymethyl)-2,15-dimethyl-6-{[4-(1-methylpiperidin-4-yl)piperazin-1-yl]methylidene}-5,9-dioxo-4-oxatetracyclo[8.7.0.0^{2,7}.0^{11,15}]heptadeca-1(10),7-dien-17-yl acetate]", "values": [{"measurement": "IC50", "setting": "[1]", "value": 0.091, "unit": "µM"}]}
{"smiles": "C=CCN(C=C1C(=O)O[C@H](COC)[C@]2(C)C3=C(C(=O)C(=O)C12)C1CCC(=O)[C@@]1(C)C[C@H]3OC(C)=O)CC=C", "note": "(some centres not stated) [PX-866]", "values": [{"measurement": "IC50", "setting": "[1]; pH 7.5, 22 °C", "value": 0.088, "unit": "µM"}]}
{"smiles": "COC[C@H]1OC(=O)C(=CN2CCC(C(=O)O)CC2)C2C(=O)C(=O)C3=C([C@H](OC(C)=O)C[C@@]4(C)C3CC[C@@H]4O)[C@]21C", "note": "(stereo partly drawn) [1-{[(2R,3S,6E,14S,15S,17R)-17-(acetyloxy)-8,14-dihydroxy-3-(methoxymethyl)-2,15-dimethyl-5,9-dioxo-4-oxatetracyclo[8.7.0.0^{2,7}.0^{11,15}]heptadeca-1(10),7-dien-6-ylidene]methyl}piperidine-4-carboxylic acid]", "values": [{"measurement": "IC50", "setting": "[1]", "value": 0.033, "unit": "µM"}]}
{"smiles": "COC[C@H]1OC(=O)C(=CN(C)CCCN2CCOCC2)C2C(=O)C(=O)C3=C([C@H](OC(C)=O)C[C@@]4(C)C3CC[C@@H]4O)[C@]21C", "note": "(stereo partly drawn) [(2R,3S,6E,14S,15S,17R)-8,14-dihydroxy-3-(methoxymethyl)-2,15-dimethyl-6-({methyl[3-(morpholin-4-yl)propyl]amino}methylidene)-5,9-dioxo-4-oxatetracyclo[8.7.0.0^{2,7}.0^{11,15}]heptadeca-1(10),7-dien-17-yl acetate]", "values": [{"measurement": "IC50", "setting": "[1]", "value": 0.024, "unit": "µM"}]}
{"smiles": "COC[C@H]1OC(=O)C(=CN2CCN(CCN3CCOCC3)CC2)C2C(=O)C(=O)C3=C([C@H](OC(C)=O)C[C@@]4(C)C3CC[C@@H]4O)[C@]21C", "note": "(stereo partly drawn) [(2R,3S,6E,14S,15S,17R)-8,14-dihydroxy-3-(methoxymethyl)-2,15-dimethyl-6-({4-[2-(morpholin-4-yl)ethyl]piperazin-1-yl}methylidene)-5,9-dioxo-4-oxatetracyclo[8.7.0.0^{2,7}.0^{11,15}]heptadeca-1(10),7-dien-17-yl acetate]", "values": [{"measurement": "IC50", "setting": "[1]", "value": 0.078, "unit": "µM"}]}
{"smiles": "COC[C@H]1OC(=O)C(=CN(CCN(C)C)Cc2ccccc2)C2C(=O)C(=O)C3=C([C@H](OC(C)=O)C[C@@]4(C)C3CC[C@@H]4O)[C@]21C", "note": "(stereo partly drawn) [(2R,3S,6Z,14S,15S,17R)-6-({benzyl[2-(dimethylamino)ethyl]amino}methylidene)-8,14-dihydroxy-3-(methoxymethyl)-2,15-dimethyl-5,9-dioxo-4-oxatetracyclo[8.7.0.0^{2,7}.0^{11,15}]heptadeca-1(10),7-dien-17-yl acetate]", "values": [{"measurement": "IC50", "setting": "[1]; pH 7.5, 22 °C", "value": 0.066, "unit": "µM"}]}
{"smiles": "COC[C@H]1OC(=O)C(=CN(C)CCN(C)C)C2C(=O)C(=O)C3=C([C@H](OC(C)=O)C[C@@]4(C)C3CC[C@@H]4O)[C@]21C", "note": "(stereo partly drawn) [(2R,3S,6E,14S,15S,17R)-6-({[2-(dimethylamino)ethyl](methyl)amino}methylidene)-8,14-dihydroxy-3-(methoxymethyl)-2,15-dimethyl-5,9-dioxo-4-oxatetracyclo[8.7.0.0^{2,7}.0^{11,15}]heptadeca-1(10),7-dien-17-yl acetate]", "values": [{"measurement": "IC50", "setting": "[1]", "value": 0.0084, "unit": "µM"}]}
{"smiles": "COC[C@H]1OC(=O)C(=CN(C)CCCN2CCN(c3ccc(OC)cc3)CC2)C2C(=O)C(=O)C3=C([C@H](OC(C)=O)C[C@@]4(C)C3CC[C@@H]4O)[C@]21C", "note": "(stereo partly drawn) [(2R,3S,6E,14S,15S,17R)-8,14-dihydroxy-3-(methoxymethyl)-6-[({3-[4-(4-methoxyphenyl)piperazin-1-yl]propyl}(methyl)amino)methylidene]-2,15-dimethyl-5,9-dioxo-4-oxatetracyclo[8.7.0.0^{2,7}.0^{11,15}]heptadeca-1(10),7-dien-17-yl acetate]", "values": [{"measurement": "IC50", "setting": "[1]", "value": 0.015, "unit": "µM"}]}
